Series [1] relates to CTGF protein. Description: CTGF Western Blot in siNA-transfected NHLF cells (6-well plate). Format: cell-based, human. The settings on record: for Mean % KD (30 nM, 72 h) n = 5: CTGF protein; for Mean % KD (30 nM, 72 h) n = 5 / Density (CTGF)/Density (α-Tubulin) (3 pM, 72 hours) / Density (CTGF)/Density (α-Tubulin) (300 pM, 72 hours) / Density (CTGF)/Density (α-Tubulin) (30 nM, 72 hours): NHLF cells; for Density (CTGF)/Density (α-Tubulin) (3 pM, 72 hours) / Density (CTGF)/Density (α-Tubulin) (300 pM, 72 hours): n = 3, ratio ± S.D.; for Density (CTGF)/Density (α-Tubulin) (30 nM, 72 hours): n = 5, ratio ± S.D.; for % Protein Reduction at 30 nM (72 hrs): human NHLF cells, mean ± S.D. As to the method: NHLF cells were plated in 6-well plates at final counts of 70,000 cells/well in 2 ml of complete growth media. Transfection was performed using 2.5 uL of RNAiMax per well. Final concentration of siNAs was 30 nM (screen) and 30, 0.3, and 0.003 nM (dose response study). Protein lysates were harvested 24, 48, and 72 hours post-transfection (screen) and 72 hours post-transfection (dose response study). Protein lysates were prepared using Cell Extraction Buffer (Invitrogen, cat# FNN0011) according to manufacturer's instructions. Protein concentration was measured using a Bradford Quick Start Kit (Bio-Rad, cat# 500-0205).
The protein source for the Western Blot experiments were from transfection of NHLF cells in a 6 well plate, as described above.
Protein samples were diluted 1:1 in 2× Laemmli buffer with 5% β-mercapto-ethanol and incubated at 95° C. for 5 minutes. 40-50 ug of protein was loaded in each lane of 10% Tris-HCl gel. One lane was designated for MagicMark Protein Standard (Invitrogen # LC5602). The gel was run at 100V for approximately 2 hours. Protein was transferred to a PVDF membrane at 100V for 60 minutes. Once the transfer was finished, the membrane was blocked in 1% Casein in PBS (BioRad Cat#161-0783) for 1 hour on a plate rocker at room temperature followed by the overnight incubation at 4° C. with goat […] anti-CTGF primary antibody (Santa Cruz Biotechnology, cat# L-20) diluted 1:200 in 1% Casein in PBS. On the next day, the blot was washed 4×5 minutes in PBST (0.1% Tween-20 in PBS) solution and incubated for 30 minutes at room temperature with rabbit anti-goat secondary antibody (Pierce Biotechnology, cat# 31402) diluted 1:1,000 in 1% Casein in PBS. Then, the blot was washed 4×5 minutes with PBST and incubated for 1 minute with ECL Western Blotting Substrate (Pierce Biotechnology, Cat# 32106). The bands were visualized on the Bio-Rad VersaDoc Imager.
The protein bands were quantified by computing their density which is defined by the ratio between the total intensity of all pixels and the area of the rectangle drawn around each band (intensity/mm^2). The density was calculated by the BioRad software.
The level of protein was quantified using the Bio-Rad VersaDoc Imager according to the protocols of that piece of equipment. A pixel count was performed in each lane using an area of identical size. Each sample was then compared to the appropriate control treated sample and converted to a percent of protein remaining compared to control.
The effects of lead siNAs on CTGF protein level were compared to the effects of the universal control using a two tail Student's T-test to obtain a P value. P<0.05 was considered significant.
The densities of CTGF bands were normalized to the respective densities of α-Tubulin by calculating the ratio of the density of CTGF band and the density of α-Tubulin band. The ratios of the treatments were then compared to the ratio of the control group using an unpaired t-test with unequal variances.
(In general: A western blot detects proteins with antibodies after separation by electrophoresis.)

The subject of series [2] is CTGF mRNA. Nature of the series: CTGF mRNA knockdown (Taqman RT-PCR) after siNA transfection of mouse NIH 3T3 cells. The class given is cell-based. As to conditions: mouse NIH3T3 cells, 10 nM siNA, 24 hrs, average of 3 experiments, vs non-targeting control. In outline: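 Mouse NIH 3T3 cells, 5000/well, transfected 24 h after plating with siNA at 10 nM final using RNAiMax, 24 h exposure without media change. CTGF mRNA by TaqMan RT-qPCR with GAPDH, knockdown via comparative Ct (2^−ΔΔCt) against non-targeting control siNA.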

[invAb] = inverted abasic unit; m = 2'-O-methyl; r = 2'-OH (RNA); f = 2'-fluoro

Turning to “48055-DC: siNA duplex; sense SEQ ID NO: 75 B cAAGuuAuuuAAAucuGuu TTB; antisense SEQ ID NO: 76 AACAGAuuuAAAuAAcuuGUU (sense CAAGUUAUUUAAAUCUGUUTT; antisense AACAGAUUUAAAUAACUUGUU; sense: DNA at AGT, 2'-fluoro at CU, [invAb] at 5' end, 3' end, backbone not given here; antisense: sugars from the 5' end rrrmmmfffmmmfmmfffmmm, backbone not given here)”, in series [1], the “Mean % KD (30 nM, 72 h) n = 5” value is 84 ± 5%; the “Density (CTGF)/Density (α-Tubulin) (3 pM, 72 hours)” value (“Density … (3 pM, 72 hours)” below) stood at 0.28 ± 0.04; the “Density (CTGF)/Density (α-Tubulin) (300 pM, 72 hours)” value (“Density … (300 pM, 72 hours)” below) was found to be 0.10 ± 0.06; the “Density (CTGF)/Density (α-Tubulin) (30 nM, 72 hours)” value (from here on “Density … (30 nM, 72 hours)”) came to 0.09 ± 0.04. For the same substance, in series [1], the “% Protein Reduction at 30 nM (72 hrs)” value is given as 84 ± 5%. Further, the “% KD Mouse” value in series [2] is reported as 24 ± 2%.
As to “48048-DC: siNA duplex; sense SEQ ID NO: 61 B GAuAGcAucuuAuAcGAGu TTB; antisense SEQ ID NO: 62 ACUcGuAuAAGAuGcuAucUU (sense GAUAGCAUCUUAUACGAGUTT; antisense ACUCGUAUAAGAUGCUAUCUU; sense: DNA at AGT, 2'-fluoro at CU, [invAb] at 5' end, 3' end, backbone not given here; antisense: sugars from the 5' end rrrfmfmfmmmmfmffmffmm, backbone not given here)”, in series [1], the “Mean % KD (30 nM, 72 h) n = 5” value is reported as 83 ± 10%; the “Density … (3 pM, 72 hours)” value was 0.31 ± 0.2; the “Density … (300 pM, 72 hours)” value came out at 0.09 ± 0.06; the “Density … (30 nM, 72 hours)” value is 0.10 ± 0.10. Besides, the “% Protein Reduction at 30 nM (72 hrs)” value in series [1] was determined as 83 ± 10%. Also, the “% KD Mouse” value in series [2] worked out at 21 ± 5%.
For the substance “48042-DC: siNA duplex; sense SEQ ID NO: 49 B GAcAuuAAcucAuuAGAcu TTB; antisense SEQ ID NO: 50 AGUcuAAuGAGuuAAuGucUU (sense GACAUUAACUCAUUAGACUTT; antisense AGUCUAAUGAGUUAAUGUCUU; sense: DNA at AGT, 2'-fluoro at CU, [invAb] at 5' end, 3' end, backbone not given here; antisense: sugars from the 5' end rrrffmmfmmmffmmfmffmm, backbone not given here)”, in series [1], the “Mean % KD (30 nM, 72 h) n = 5” value is listed as 86 ± 13%; the “Density … (3 pM, 72 hours)” value was found to be 0.45 ± 0.13; the “Density … (300 pM, 72 hours)” value worked out at 0.11 ± 0.06; the “Density … (30 nM, 72 hours)” value came out at 0.09 ± 0.11. In series [1], the “% Protein Reduction at 30 nM (72 hrs)” value turned out to be 86 ± 13%. Further, the “% KD Mouse” value in series [2] is 30 ± 4%.
Consider “48046-DC: siNA duplex; sense SEQ ID NO: 57 B cAcAGcAccAGAAuGuAuA TTB; antisense SEQ ID NO: 58 UAUAcAuucuGGuGcuGuGUU (sense CACAGCACCAGAAUGUAUATT; antisense UAUACAUUCUGGUGCUGUGUU; sense: DNA at AGT, 2'-fluoro at CU, [invAb] at 5' end, 3' end, backbone not given here; antisense: sugars from the 5' end rrrmfmffffmmfmffmfmmm, backbone not given here)”, for which, in series [1], the “Mean % KD (30 nM, 72 h) n = 5” value stood at 82 ± 11%; the “Density … (3 pM, 72 hours)” value was 0.56 ± 0.3; the “Density … (300 pM, 72 hours)” value is 0.13 ± 0.08; the “Density … (30 nM, 72 hours)” value stood at 0.11 ± 0.10. In series [1], the “% Protein Reduction at 30 nM (72 hrs)” value was 82 ± 11%. Further, the “% KD Mouse” value in series [2] is 19 ± 3%.
For the substance “48047-DC: siNA duplex; sense SEQ ID NO: 59 B cGAGuAAuAuGccuGcuAu TTB; antisense SEQ ID NO: 60 AUAGcAGGcAuAuuAcucGUU (sense CGAGUAAUAUGCCUGCUAUTT; antisense AUAGCAGGCAUAUUACUCGUU; sense: DNA at AGT, 2'-fluoro at CU, [invAb] at 5' end, 3' end, backbone not given here; antisense: sugars from the 5' end rrrmfmmmfmfmffmfffmmm, backbone not given here)”, in series [1], the “Mean % KD (30 nM, 72 h) n = 5” value was found to be 58 ± 26%; the “Density … (3 pM, 72 hours)” value is recorded as 0.51 ± 0.4; the “Density … (300 pM, 72 hours)” value worked out at 0.17 ± 0.1; the “Density … (30 nM, 72 hours)” value stood at 0.22 ± 0.13. Moreover, in series [1], the “% Protein Reduction at 30 nM (72 hrs)” value turned out to be 58 ± 26%. Besides, in series [2], the “% KD Mouse” value turned out to be 18 ± 3%.

(Values after patent publication US20120016011A1, “RNA Interference Mediated Inhibition of Connective Tissue Growth Factor (CTGF) Gene Expression Using Short Interfering Nucleic Acid (siNA)” (Merck Sharp & Dohme Corp., priority 2009, published 2012).)
